The results in this text go back to patent publication US20190373936A1, “COMPOSITION, METHOD FOR PRODUCING THE SAME AND USE THEREOF” (INFINITUS (CHINA) COMPANY LTD., priority 2018, published 2019).

Experiment [1] in a line: Body weight of SD rats fed high-fat diet during administration of test sample. The class given is in vivo. Particulars: positive control groups (omega 150 mg/kg; atorvastatin calcium 0.83 mg/kg), 30 days. An excerpt:
In the present disclosure, reference was made to the method for testing the function of facilitating lowering blood-lipid in the Technical specification for health care food inspection and evaluation (2012 Updated Edition). SPF grade male SD rats were used as experimental animals. After the adaption period, an animal model of the combined hyperlipidemia was established, and the rats were randomly divided into groups according to TC level. Three dosage groups were continuously administered with the composition provided by the present disclosure by gavage at a dosage of 500 mg/kg·BW (equaled to 5 times of recommendation amount for human), 1000 mg/kg·BW (equaled to 10 times of recommendation amount for human) and 2500 mg/kg·BW (equaled to 25 times of recommendation amount for human), respectively. […]
After grouping, each dosage group was orally administered with the test sample every day, the two positive groups were respectively orally administered with positive control samples (diluted Omega solution and diluted atorvastatin calcium solution), and the blank control group and the model control group were administered with the same volume of distilled water. […] After blood collection, the serum was quickly separated, and levels of TC, TG, HDL-C, LDL-C, ox-HDL-C, ox-LDL-C, apo-A1 and apo-β in serum were measured.

Experiment [2] deals with SD rats of combined hyperlipidemia model. The experiment is described as follows: Function of facilitating lowering blood lipid: serum lipid indexes by ELISA in combined hyperlipidemia SD rat model. The class given is in vivo. An excerpt:
In the present disclosure, reference was made to the method for testing the function of facilitating lowering blood-lipid in the Technical specification for health care food inspection and evaluation (2012 Updated Edition). SPF grade male SD rats were used as experimental animals. After the adaption period, an animal model of the combined hyperlipidemia was established, and the rats were randomly divided into groups according to TC level. Three dosage groups were continuously administered with the composition provided by the present disclosure by gavage at a dosage of 500 mg/kg·BW (equaled to 5 times of recommendation amount for human), 1000 mg/kg·BW (equaled to 10 times of recommendation amount for human) and 2500 mg/kg·BW (equaled to 25 times of recommendation amount for human), respectively. The blank control group and the model control group were administered with the same volume of distilled water by gavage. Each group was weighed regularly. 30 days after the administration, blood samples were collected without fasting, and levels of TC, TG, HDL-C, LDL-C, ox-HDL, ox-LDL, apo-A1 and apo-β were tested.
Name: SPF grade male SD rats, body weight 170˜220 g
High-fat diet: maintenance diet with 20.0% sucrose, 15% lard, 1.2% cholesterol, 0.2% sodium cholate, appropriate amounts of casein, calcium hydrogen phosphate, rock powders and so on. Except for crude fat, water content, crude protein, crude fat, crude fiber, ash, calcium, phosphate and calcium:phosphate ratio reached the national standard for maintenance diet.
Surgical instruments, centrifuges, centrifuge tubes, electronic balances, punchers, gavage needles, enzyme-labeled instruments, heparin sodium, anesthetic, formalin, refrigerators, vortex mixer, weighing scale, serum total cholesterol (TC) ELISA kit, serum triglyceride (TG) ELISA kit, serum high-density lipoprotein cholesterol (HDL-C) ELISA kit, serum low-density lipoprotein cholesterol (LDL-C) ELISA kit, serum oxidized high-density lipoprotein cholesterol (ox-HDL-C) ELISA kit, serum oxidized low-density lipoprotein cholesterol (ox-LDL-C) ELISA kit, serum apolipoprotein A1 (apo-A1) ELISA kit, and serum apolipoprotein (apo-β) ELISA kit.
There were three dosage groups, two positive control groups, one blank control group and one model control group. In low-dosage group, the test sample was administered at a dosage of 5 times of the recommendation amount for human (500 mg/kg), and in middle-dosage and high-dosage groups, the dosages equaled to 10 times (1000 mg/kg) and 25 times (2500 mg/kg) of the recommendation amount for human. The dosage of the positive control group equaled to 5 times (omega: 150 mg/kg; and atorvastatin calcium: 0.83 mg/kg) of the recommendation amount for human. The blank control group and the model control group were administered with equal amount of distilled water at the same volume by gavage. The duration of the administration of the test sample was generally 30 days.
The compositions provided by the examples 1˜3, the powder formulations provided by the examples 4˜6 were accurately weighed, and an appropriate amount of distilled water was added to prepare the low-, middle- and high-dosages samples. The samples were prepared right before use.
(1) Adaptive period: In a barrier system, the rats were fed on maintenance diet and observed for 5˜7 days.
The rats were randomly divided into 22 groups, 6 per group. One group was fed on the maintenance diet as the blank control group. The other 21 groups were fed on high-fat diet as the model control group. The rats were weighed once a week.
20 days after the model control group was fed on high-fat diet, rats in the blank control group and the model control groups were subjected to blood collection (1˜1.5 mL of blood was collected from the tail vein) without fasting. After blood collection, the serum was quickly separated to a new centrifugal tube, stored at −20° C. before test. […]

Where [3] appears, read: positive control groups (omega 150 mg/kg; atorvastatin calcium 0.83 mg/kg), 30 days.

For the molecule `CC(C)c1c(C(=O)Nc2ccccc2)c(-c2ccccc2)c(-c2ccc(F)cc2)n1CC[C@@H](O)C[C@@H](O)CC(=O)[O-].CC(C)c1c(C(=O)Nc2ccccc2)c(-c2ccccc2)c(-c2ccc(F)cc2)n1CC[C@@H](O)C[C@@H](O)CC(=O)[O-].[Ca+2]` [Atorvastatin Calcium, atorvastatin calcium], in experiment [1], the “Final Weight (Mean Value ± Standard Deviation)” value came out at 442.00 ± 40.77. The “Effect on Apo-β content in serum of SD rats” value in experiment [2] (compared with the model control group) was “decreased”. In addition, in experiment [2] (setting [3]), the “Apo-A1 levels in serum (Mean Value ± Standard Deviation)” value was determined as 2693.75 ± 435.48 µg/mL, the “Apo-β levels in serum (Mean Value ± Standard Deviation)” value came to 735.00 ± 264.71 µg/mL, the “HDL-C levels in serum (Mean Value ± Standard Deviation)” value amounted to 919.74 ± 150.63 µmol/L and the “LDL-C levels in serum (Mean Value ± Standard Deviation)” value was 853.24 ± 235.19 µmol/L. In experiment [2] (setting [3]), the “Ox-HDL-C levels in serum (Mean Value ± Standard Deviation)” value was 35.88 ± 7.30 µg/L, the “Ox-LDL-C levels in serum (Mean Value ± Standard Deviation)” value was determined as 45.44 ± 7.40 µg/L, the “TC levels in serum (Mean Value ± Standard Deviation)” value is 1117.14 ± 171.07 µmol/L and the “TG levels in serum (Mean Value ± Standard Deviation)” value was determined as 189.71 ± 45.83 µmol/L.
